Source: patent US11535643B2, “Macrolides with modified desosamine sugars and uses thereof” (President and Fellows of Harvard College, priority 2015, dated 2022)
≈ marks a conversion by molar mass, not a printed value. Where two headings read alike, the source gives them in different places.

Legend:
Type in all cases: cell-based
A. baumannii = assay: Broth dilution MIC determination (CLSI) against A. baumannii strains; details: Acinetobacter baumannii
Summary of the method: (§1)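 MICs were determined by CLSI standard broth dilution against several strains per species, including multidrug-resistant and macrolide-resistant strains. Azithromycin and solithromycin served as control compounds.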

H. influenzae = assay: Broth dilution MIC determination (CLSI) against H. influenzae strains; details: Haemophilus influenzae
Summary of the method: as §1

S. pyogenes = assay: Broth dilution MIC determination (CLSI) against S. pyogenes strains; details: Streptococcus pyogenes
Summary of the method: as §1

K. pneumoniae = assay: Broth dilution MIC determination (CLSI) against K. pneumoniae strains; details: Klebsiella pneumoniae
Summary of the method: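 Azithromycin and solithromycin served as controls; MICs were obtained by standard CLSI broth dilution on a strain panel including multidrug-resistant and macrolide-resistant isolates.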

S. aureus = assay: Broth dilution MIC determination (CLSI) against S. aureus strains; details: Staphylococcus aureus
Summary of the method: as §1

E. faecalis = assay: Broth dilution MIC determination (CLSI) against E. faecalis strains; details: Enterococcus faecalis
Summary of the method: as §1

E. coli = assay: Broth dilution MIC determination (CLSI) against E. coli strains; details: Escherichia coli
Summary of the method: as §1

S. pneumoniae = assay: Broth dilution MIC determination (CLSI) against S. pneumoniae strains; details: Streptococcus pneumoniae
Summary of the method: as §1

P. aeruginosa = assay: Broth dilution MIC determination (CLSI) against P. aeruginosa strains; details: Pseudomonas aeruginosa
Summary of the method: as §1

[1] = ATCC19606, ATCC19606, read-out: MIC A. baumannii ATCC19606
[2] = IMP-4, read-out: MIC A. baumannii IMP-4
[3] = chromosomal class C, read-out: MIC A. baumannii chromosomal class C
[4] = imipenem-resistant, read-out: MIC A. baumannii imipenem-resistant
[5] = ATCC49247, ATCC49247, read-out: MIC H. influenzae ATCC49247
[6] = erythro > 4, azithro 1, read-out: MIC H. influenzae erythro > 4, azithro 1
[7] = ATCC19615, ATCC19615, read-out: MIC S. pyogenes ATCC19615
[8] = macrolide-resistant, read-out: MIC S. pyogenes macrolide-resistant
[9] = ATCC10031, ATCC10031, read-out: MIC K. pneumoniae ATCC10031
[10] = KPC-2, read-out: MIC K. pneumoniae KPC-2
[11] = SHV-12, read-out: MIC K. pneumoniae SHV-12
[12] = TEM-10, read-out: MIC K. pneumoniae TEM-10
[13] = ATCC29213, ATCC29213, read-out: MIC S. aureus ATCC29213
[14] = MRSA / USA100, MRSA: USA100, read-out: MIC S. aureus MRSA: USA100
[15] = MRSA / USA300, MRSA: USA300, read-out: MIC S. aureus MRSA: USA300
[16] = USA600, USA600, GISA, read-out: MIC S. aureus USA600, GISA
[17] = read-out: MIC S. aureus erm A genotype
[18] = ATCC29212, ATCC29212, read-out: MIC E. faecalis ATCC29212
[19] = Vancomycin-resistant, read-out: MIC E. faecalis Vancomycin-resistant
[20] = ATCC25922, ATCC25922, read-out: MIC E. coli ATCC25922
[21] = read-out: MIC E. coli CTX-M-14, CTX-M-14
[22] = read-out: MIC E. coli NDM-1, NDM-1
[23] = read-out: MIC E. coli TEM-1, TEM-1
[24] = ATCC49619, ATCC49619, read-out: MIC S. pneumoniae ATCC49619
[25] = erm B + mef A genotype, read-out: MIC S. pneumoniae erm B + mef A genotype
[26] = erm B + tet(M, O) genotype, read-out: MIC S. pneumoniae erm B + tet(M, O) genotype
[27] = read-out: MIC S. pneumoniae mef A genotype, mef A genotype
[28] = read-out: MIC S. pneumoniae mef A genotype, mef A genotype, first of two such columns (c3)
[29] = ATCC27853, read-out: MIC P. aeruginosa ATCC27853
[30] = read-out: MIC P. aeruginosa HPA101-1477

Compound | MIC (A. baumannii; [1]) [µg/mL] | MIC (A. baumannii; [4]) [µg/mL] | MIC (H. influenzae; [5]) [µg/mL] | MIC (H. influenzae; [6]) [µg/mL] | MIC (S. pyogenes; [7]) [µg/mL] | MIC (S. pyogenes; [8]) [µg/mL] | MIC (K. pneumoniae; [9]) [µg/mL] | MIC (K. pneumoniae; [10]) [µg/mL] | MIC (S. aureus; [13]) [µg/mL] | MIC (S. aureus; [14]) [µg/mL] | MIC (S. aureus; [15]) [µg/mL] | MIC (S. aureus; [16]) [µg/mL] | MIC (S. aureus; [17]) [µg/mL] | MIC (E. faecalis; [18]) [µg/mL] | MIC (E. faecalis; [19]) [µg/mL] | MIC (E. coli; [20]) [µg/mL] | MIC (E. coli; [22]) [µg/mL] | MIC (S. pneumoniae; [24]) [µg/mL] | MIC (S. pneumoniae; [25]) [µg/mL] | MIC (S. pneumoniae; [26]) [µg/mL] | further results
CC[C@H]1OC(=O)[C@H](C)C(=O)[C@H](C)[C@@H](O[C@@H]2OC(CN)CC(N(C)C)C2O)[C@](C)(OC)C[C@@H](C)CN[C@H](C)[C@H]2N(CCCCn3cc(-c4cccc(N)c4)nn3)C(=O)O[C@]12C (some centres unmarked) [FSM-21700] | > 32 | > 32 | 32 (≈ 38 µM) | 16 (≈ 19 µM) | 0.0625 (≈ 0.0741 µM) | 2 (≈ 2.37 µM) | 4 (≈ 4.74 µM) | > 32 | 8 (≈ 9.49 µM) | > 32 | > 32 | > 32 | 32 (≈ 38 µM) | 8 (≈ 9.49 µM) | > 32 | 32 (≈ 38 µM) | 16 (≈ 19 µM) | ≤ 0.0312 | 16 | 0.0625 | MIC (A. baumannii; [2]): > 32 µg/mL; MIC (A. baumannii; [3]): > 32 µg/mL; MIC (K. pneumoniae; [11]): > 32 µg/mL; MIC (K. pneumoniae; [12]): 32 µg/mL (≈ 38 µM); MIC (E. coli; [21]): > 32 µg/mL; MIC (E. coli; [23]): 8 µg/mL (≈ 9.49 µM); MIC (S. pneumoniae; [27]): 2 µg/mL (≈ 2.37 µM); MIC (S. pneumoniae; [28]): 0.5 µg/mL (≈ 0.593 µM); MIC (P. aeruginosa; [29]): > 32 µg/mL; MIC (P. aeruginosa; [30]): > 32 µg/mL
CC[C@H]1OC(=O)[C@H](C)C(=O)[C@H](C)[C@@H](O[C@@H]2OC(CNS(=O)(=O)c3cccnc3)CC(N(C)C)C2O)[C@](C)(OC)C[C@@H](C)CN[C@H](C)[C@H]2N(CCCCn3cc(-c4cccc(N)c4)nn3)C(=O)O[C@]12C (some centres unmarked) [FSM-21876] | > 32 | 32 (≈ 32.5 µM) | 4 (≈ 4.06 µM) | 16 (≈ 16.3 µM) | 0.0625 (≈ 0.0635 µM) | 2 (≈ 2.03 µM) | 16 (≈ 16.3 µM) | 32 (≈ 32.5 µM) | 16 (≈ 16.3 µM) | > 32 | > 32 | > 32 | > 32 | 2 (≈ 2.03 µM) | > 32 | 32 (≈ 32.5 µM) | > 32 | 0.125 (≈ 0.127 µM) | 8 | 0.0313 | MIC (S. pneumoniae; [27]): 16 µg/mL (≈ 16.3 µM); MIC (S. pneumoniae; [28]): 4 µg/mL (≈ 4.06 µM); MIC (P. aeruginosa; [29]): > 32 µg/mL
CC[C@H]1OC(=O)[C@H](C)C(=O)[C@H](C)[C@@H](O[C@@H]2OC(CN(C)C)CC(N(C)C)C2O)[C@](C)(OC)C[C@@H](C)CN(C)[C@H](C)[C@H]2N(CCCCn3cc(-c4cccc(N)c4)nn3)C(=O)O[C@]12C (some centres unmarked) [FSM-22003] | > 32 | > 32 | 8 (≈ 9.04 µM) | 4 (≈ 4.52 µM) | ≤ 0.0312 | 2 (≈ 2.26 µM) | 8 (≈ 9.04 µM) | > 32 | 8 (≈ 9.04 µM) | > 32 | > 32 | > 32 | > 32 | 4 (≈ 4.52 µM) | > 32 | > 32 | > 32 | ≤ 0.0312 | 32 | ≤ 0.0312 | MIC (A. baumannii; [2]): > 32 µg/mL; MIC (A. baumannii; [3]): > 32 µg/mL; MIC (K. pneumoniae; [11]): > 32 µg/mL; MIC (K. pneumoniae; [12]): > 32 µg/mL; MIC (E. coli; [21]): > 32 µg/mL; MIC (E. coli; [23]): 32 µg/mL (≈ 36.2 µM); MIC (S. pneumoniae; [27]): 0.5 µg/mL (≈ 0.565 µM); MIC (S. pneumoniae; [28]): 0.0625 µg/mL (≈ 0.0706 µM); MIC (P. aeruginosa; [29]): > 32 µg/mL; MIC (P. aeruginosa; [30]): > 32 µg/mL
